Experimental data taken from ChEMBL document CHEMBL3045805, “Synthesis, characterization, and antimicrobial activity of some new coumarin derivatives” (Med Chem Res, 2012).
In brackets after ≈: the same amount, converted by molar mass.

Assays:
Escherichia coli [1] = assay: Antibacterial activity against Escherichia coli after 24 hr; type: functional
Klebsiella pneumoniae [2] = assay: Antibacterial activity against Klebsiella pneumoniae after 24 hr; type: functional
Klebsiella pneumoniae [3] = assay: Antibacterial activity against Klebsiella pneumoniae at 50 ug/ml after 24 hr by agar diffusion method; type: functional; details: read-out: DIZ
Staphylococcus aureus [4] = assay: Antibacterial activity against Staphylococcus aureus after 24 hr; type: functional
Escherichia coli [5] = assay: Antibacterial activity against Escherichia coli at 50 ug/ml after 24 hr by agar diffusion method; type: functional; details: read-out: DIZ
Staphylococcus aureus [6] = assay: Antibacterial activity against Staphylococcus aureus at 50 ug/ml after 24 hr by agar diffusion method; type: functional; details: read-out: DIZ
Klebsiella pneumoniae [7] = assay: Antibacterial activity against Klebsiella pneumoniae at 1 ug/ml after 24 hr by agar diffusion method; details: read-out: DIZ
Staphylococcus aureus [8] = assay: Antibacterial activity against Staphylococcus aureus at 1 ug/ml after 24 hr by agar diffusion method; details: read-out: DIZ

Row | Compound | MIC (Escherichia coli [1]) | MIC (Klebsiella pneumoniae [2]) | zone of inhibition at 50 µg/mL (Klebsiella pneumoniae [3]) | MIC (Staphylococcus aureus [4]) | zone of inhibition at 50 µg/mL (Escherichia coli [5]) | zone of inhibition at 50 µg/mL (Staphylococcus aureus [6]) | zone of inhibition at 1 µg/mL (Klebsiella pneumoniae [7]) | zone of inhibition at 1 µg/mL (Staphylococcus aureus [8])
1 | COc1ccc2c(CNc3ccc4c(C)cc(=O)oc4c3)cc(=O)oc2c1 | 45.9 µg/mL (≈ 126 µM) | 22.9 µg/mL (≈ 63 µM) | 20 mm | 91.9 µg/mL (≈ 253 µM) | 12 mm | 10 mm |  | 
2 | COc1ccc2c(CNc3ccc4c(C)cc(=O)oc4c3)c(Br)c(=O)oc2c1 | 46.4 µg/mL (≈ 105 µM) | 46.4 µg/mL (≈ 105 µM) | 14 mm | 92.8 µg/mL (≈ 210 µM) | 11 mm | 10 mm |  | 
3 | CCOC(=O)c1oc2cc(OC)ccc2c1CNc1ccc2c(C)cc(=O)oc2c1 | 51.6 µg/mL (≈ 127 µM) | 25.8 µg/mL (≈ 63.3 µM) | 14 mm | > 100 µg/mL | 11 mm | 11 mm |  | 
4 | Cc1ccc(S(=O)(=O)NNC(=O)COc2ccc3c(C)cc(=O)oc3c2)cc1 | 98.4 µg/mL (≈ 245 µM) | 49.2 µg/mL (≈ 122 µM) | 10 mm | 98.4 µg/mL (≈ 245 µM) | 11 mm | 10 mm |  | 
5 | Cc1cc(=O)oc2cc(OCC(=O)NNS(=O)(=O)c3ccc(F)cc3)ccc12 | 24.1 µg/mL (≈ 59.3 µM) | 48.3 µg/mL (≈ 119 µM) | 12 mm | 96.6 µg/mL (≈ 238 µM) | 12 mm | 9 mm |  | 
6 | Cc1cc(=O)oc2cc(OCC(=O)NNS(=O)(=O)c3ccc(Cl)cc3)ccc12 | 55.3 µg/mL (≈ 131 µM) | 27.7 µg/mL (≈ 65.5 µM) | 10 mm | > 100 µg/mL | 12 mm | 9 mm |  | 
7 | Cc1cc(=O)oc2cc(OCC(=O)NNS(=O)(=O)c3ccc(Br)cc3)ccc12 | 42.6 µg/mL (≈ 91.2 µM) | 42.6 µg/mL (≈ 91.2 µM) | 11 mm | 85.1 µg/mL (≈ 182 µM) | 12 mm | 14 mm |  | 
8 | Cc1cc(=O)oc2cc(OCC(=O)NNS(=O)(=O)c3cccc([N+](=O)[O-])c3)ccc12 | 26 µg/mL (≈ 60 µM) | 52 µg/mL (≈ 120 µM) | 14 mm | > 100 µg/mL | 13 mm | 10 mm |  | 
9 | Cc1cc(=O)oc2cc(OCC(=O)NNS(=O)(=O)c3ccc(C(F)(F)F)cc3)ccc12 | 44.5 µg/mL (≈ 97.5 µM) | 44.5 µg/mL (≈ 97.5 µM) | 15 mm | 89.1 µg/mL (≈ 195 µM) | 13 mm | 11 mm |  | 
10 | Cc1cc(=O)oc2cc(OCC(=O)NNc3ccnc4c(Cl)cccc34)ccc12 | 28.9 µg/mL (≈ 70.5 µM) | 57.8 µg/mL (≈ 141 µM) | 13 mm | > 100 µg/mL | 13 mm | 10 mm |  | 
11 | O=C(O)c1cn(C2CC2)c2cc(N3CCNCC3)c(F)cc2c1=O [CIPROFLOXACIN] | 0.6 µg/mL (≈ 1.81 µM) | 1.3 µg/mL (≈ 3.92 µM) |  | 0.6 µg/mL (≈ 1.81 µM) |  |  | 20 mm | 24 mm
